Assays:
PRKACA = biological target: T1, PRKACA (Homo sapiens, UniProt P17612); assay: PRKACA assay at Km (EZ Reader 2 electrophoretic mobility shift); type: biochemical; conditions: 5 μM ATP (Km), 1 μM Kemptide, 90 minutes at 25 C; read-out: Enz PRKACA IC50
T1 construct: purchased Millipore 539482
Description: (§1) A Perkin Elmer electrophoretic mobility shift platform (the EZ Reader 2) was used to assess the activity of test compounds against a kinase of interest. Fluorescently labeled substrate peptide was incubated in the presence of kinase, ATP, and the test compound, so that a portion of the peptide was phosphorylated by the enzyme. At the end of the reaction, the mix of phosphorylated (product) and non-phosphorylated (substrate) peptide containing solutions was passed through the microfluidic system of the Perkin Elmer EZ Reader 2 under an applied potential difference. The presence of the phosphate group on the product peptide provided a difference in mass and charge between those of the substrate peptide, resulting in a separation of the substrate and product pools in the sample. As the stopped solutions passed under the instrument's LED light the phosphorylated and un-phosphorylated fluorophore bound peptides were detected and resolved as separate peaks. The ratio between these peaks therefore reflected the test compound's impact on the kinase at that concentration in that well under those conditions.
PRKACA assay at Km: In each well of a 384-well plate, 0.007 ng/ul (0.18 nM) of PRKACA enzyme (Millipore: 539482) was incubated in a total of 12.5 μl of buffer (100 mM HEPES pH 7.5, 0.015% Brij 35, 10 mM MgCl2, 1 mM DTT) with 1 μM Kemptide peptide substrate (5-FAM-LRRASLG) (Anaspec 29933) and 5 μM ATP at 25 C for 90 minutes in the presence or absence of a dosed concentration series of test compounds (1% DMSO final concentration). The reaction was stopped by the addition of 80 μl of Stop buffer (100 mM HEPES pH 7.5, 0.015% Brij 35, 35 mM EDTA and 0.2% of Coating Reagent 3 (Perkin Elmer)). The plate was then read on the EZ Reader 2 (protocol settings: −2.0 psi, upstream voltage −700, downstream voltage −2700, post sample sip 60 seconds). Data was normalized to 0% and 100% inhibition controls and the IC50 calculated using a 4-parameter fit using GraphPad Prism.

PRKACA-DNAJB1 = biological target: T2, PRKACA-DNAJB1 (Homo sapiens, UniProt P17612); assay: PRKACA-DNAJB1 enzyme assay (EZ Reader 2 electrophoretic mobility shift); type: biochemical; conditions: read-out: Enz PRKACA-DNAJB1 IC50
T2 construct: DNAJB1 (fusion partner, P25685); the other entry of the earlier key: DNAJB1 (P25685, DnaJ homolog subfamily B member 1)
Description: as §1

[1] = test system: PKA (phosphorylation of VASP on Serine 157); assay: Cellular potency assay: P-VASP(157) HTRF in Forskolin-stimulated Huh7 cells; type: cell-based; conditions: Homo sapiens, Huh-7, 4 hours compound, 5 μM Forskolin 30 minutes, read-out: Phos VASP(S157) IC50
Text: PKA directly phosphorylate VASP on Serine 157. Phosphorylation of VASP on Serine 157. P-VASP(157) was therefore used as a readout of PKA cellular activity. P-VASP(157) was detected with a HTRF assay, which is based on a TR-FRET sandwich immunoassay-based format comprising two specific anti-VASP antibodies following the manufactors protocol (Cisbio, Catalog No. 63ADK066PEH). PKA was activated in the assay by the addition of Forskolin (Sigma-Aldrich, Catalog No. F3917).
Dose response in Forskolin-stimulated human Huh7 cells was measured as follows. Briefly, Huh7 cells were plated at a density of 2×10^4 cells per well in a 384-well opti-well cell culture plate in 15 μl of serum- and phenol-free Dulbecco's Modified Eagle Medium (DMEM, Gibco Catalog No. 21063-029), and incubated for over night at 37° C., 5% CO2. The next day, 3 μl of a dosed concentration series of test compound (0.24%) DMSO final concentration) was added to the wells, and the cells were incubated for an additional 4 hours at 37° C., 5% CO2. 2 μl of Forskolin was added at a final concentration of 5 μM and the plates were incubated for 30 minutes at 37° C., 5% CO2. 5 μl of lysis buffer containing 1% HALT protease cocktail inhibitors (ThermoFisher, Catalog No. 78430), was added to the cells and the mixture was incubated under gentle shaking for 30 min at room temperature. 10 μl of this lysate was transferred to a 384-well proxi plate and 2.5 μL of the premixed antibody solution was added. An antibody solution was prepared by combining phopho-VASP cryptate antibody and phospho-VASP d2 antibody, at twenty-fold dilution into a buffer solution following the manufactors' protocol. The lysate and antibody mixture was incubated for either 3 h at room temperature or overnight at 4° C. The fluorescence emission at two different wavelengths (665 nm and 620 nm) was read on an EnVision instrument.

Row | SMILES | IC50 (PRKACA) [nM] | IC50 (PRKACA-DNAJB1) [nM] | IC50 [1] [nM]
1 | O=C(N[C@@H]1c2ccccc2OC[C@@H]1O)c1ccc(-c2ccnc3[nH]ccc23)cc1 [Compound 110, N-[(3R,4R)-3-Hydroxy-3,4-dihydro-2H-1-benzopyran-4-yl]-4-{1H-pyrrolo[2,3-b]pyridin-4-yl}benzamide] | ≤ 1 | ≤ 1 | < 50
2 | CO[C@@H]1CCN([C@@H]2Cc3cccc(Cl)c3[C@H]2NC(=O)c2ccc(-c3ccnc4[nH]cc(C)c34)nc2)C1 [Compound 188] | ≤ 1 | 1.01 to 5 | 0.01 to 100
3 | C[C@@H]1C[C@H](NC(=O)c2ccc(-c3ccnc4[nH]ccc34)cc2)c2ccccc2O1 [Compound 109] | ≤ 1 | ≤ 1 | < 50
4 | Cc1c[nH]c2nccc(-c3ccc(C(=O)N[C@@H]4c5ccccc5C[C@H]4O)cc3)c12 [Compound 107, N-[(1R,2R)-2-Hydroxy-2,3-dihydro-1H-inden-1-yl]-4-{3-methyl-1H-pyrrolo[2,3-b]pyridin-4-yl}benzamide] | ≤ 1 | ≤ 1 | < 50
5 | O=C(N[C@H]1CCOc2cccc(F)c21)c1ccc(-c2ccnc3[nH]cc(F)c23)cc1 [Compound 128] | ≤ 1 | ≤ 1 | < 50
6 | O=C(N[C@@H]1c2c(F)cc(C(F)F)cc2C[C@H]1N1CC[C@H](F)C1)c1ccc(-c2ccnc3[nH]ccc23)nc1 [Compound 190] | ≤ 1 | ≤ 1 | < 50
7 | O=C(N[C@H]1CCOc2cccc(F)c21)c1ccc(-c2ccnc3[nH]ccc23)nc1 [Compound 117, (S)—N-(5-Fluorochroman-4-yl)-6-(1H-pyrrolo[2,3-b]pyridin-4-yl)nicotinamide] | ≤ 1 | ≤ 1 | < 50
8 | O=C(N[C@@H]1c2ccccc2C[C@H]1N1CCCC1)c1ccc(-c2ccnc3[nH]ccc23)cc1 [Compound 142] | ≤ 1 | ≤ 1 | < 50
9 | C[C@H]1Oc2cccc(F)c2[C@@H](NC(=O)c2ccc(-c3ccnc4[nH]ccc34)nc2)[C@H]1O (single isomer, unassigned) [Compound 136] | ≤ 1 | ≤ 1 | 0.01 to 100
10 | CO[C@@H]1CCN([C@@H]2Cc3cccc(Cl)c3[C@H]2NC(=O)c2ccc(-c3ccnc4[nH]cc(F)c34)nc2)C1 [Compound 189] | ≤ 1 | ≤ 1 | 0.01 to 100
11 | O=C(N[C@@H]1c2c(Cl)cccc2OC[C@@H]1O)c1ccc(-c2ccnc3[nH]ccc23)nc1 [Compound 139] | ≤ 1 | 1.01 to 5 | 0.01 to 100
12 | O=C(N[C@@H]1c2ccccc2C[C@H]1F)c1ccc(-c2ccnc3[nH]ccc23)cc1 [Compound 104, N-((1R,2R)-2-Fluoro-2,3-dihydro-1H-inden-1-yl)-4-(1H-pyrrolo[2,3-b]pyridin-4-yl)benzamide] | ≤ 1 | ≤ 1 | 0.01 to 100
13 | O=C(N[C@H]1CCOc2ccccc21)c1ccc(-c2ccnc3[nH]ccc23)cc1 [Compound 103] | ≤ 1 | ≤ 1 | < 50
14 | O=C(N[C@@H]1c2ccccc2C[C@H]1O)c1ccc(-c2ccnc3[nH]ccc23)cc1 [Compound 102] | ≤ 1 | ≤ 1 | 0.01 to 100
15 | Cc1c[nH]c2nccc(-c3ccc(C(=O)N[C@@H]4c5c(F)cccc5OC[C@@H]4O)cn3)c12 [Compound 135] | ≤ 1 | ≤ 1 | 0.01 to 100
16 | Cc1c[nH]c2nccc(-c3ccc(C(=O)N[C@@H]4c5c(F)cc(C(F)F)cc5OCC4O)cn3)c12 (single isomer, unassigned) [Compound 172] | ≤ 1 | ≤ 1 | < 50

Row | SMILES | IC50 (PRKACA) [nM] | IC50 (PRKACA-DNAJB1) [nM] | IC50 [1] [nM]
17 | CN(C)[C@@H]1Cc2ccccc2[C@H]1NC(=O)c1ccc(-c2ccnc3[nH]ccc23)cc1 [Compound 120, N-[(1R,2R)-2-(Dimethylamino)-2,3-dihydro-1H-inden-1-yl]-4-{1H-pyrrolo[2,3-b]pyridin-4-yl}benzamide] | ≤ 1 | ≤ 1 | < 50
18 | O=C(N[C@H]1C[C@@H](O)c2cc(C(F)F)cc(F)c21)c1ccc(-c2ccnc3[nH]ccc23)nc1 [Compound 156] | ≤ 1 |  | < 50
19 | O=C(N[C@@H]1c2c(F)cc(C(F)F)cc2OC[C@@H]1O)c1ccc(-c2ccnc3[nH]ccc23)nc1 [Compound 164] | ≤ 1 |  | < 50
20 | O=C(N[C@@H]1c2c(Cl)cccc2C[C@H]1N1C[C@@H](O)[C@@H](F)C1)c1ccc(-c2ccnc3[nH]ccc23)nc1 [Compound 187] | 1.01 to 5 |  | > 100
21 | CCN(CC)[C@@H]1Cc2ccccc2[C@H]1NC(=O)c1ccc(-c2ccnc3[nH]ccc23)nc1 [Compound 147] | 1.01 to 5 |  | < 50
22 | O=C(N[C@@H]1c2ccccc2C[C@H]1N1CCC1)c1ccc(-c2ccnc3[nH]ccc23)nc1 [Compound 133] | 1.01 to 5 |  | 0.01 to 100
23 | Cc1c[nH]c2nccc(-c3ccc(C(=O)N[C@@H]4c5c(Cl)cccc5C[C@H]4N4CC[C@H](F)C4)cn3)c12 [Compound 182] | ≤ 1 |  | 0.01 to 100
24 | O=C(N[C@H]1C[C@H](O)c2cccc(F)c21)c1ccc(-c2ccnc3[nH]ccc23)nc1 (single isomer, unassigned) [Compound 118] | ≤ 1 |  | 0.01 to 100
25 | CN(C)C(=O)[C@H]1N([C@@H]2Cc3cccc(Cl)c3[C@H]2NC(=O)c2ccc(-c3ccnc4[nH]ccc34)nc2)CC1(C)C [Compound 192, N-[(1R,2R)-7-Chloro-2-[(2S)-2-(dimethylcarbamoyl)-3,3-dimethylazetidin-1-yl]-2,3-dihydro-1H-inden-1-yl]-6-{1H-pyrrolo[2,3-b]pyridin-4-yl}pyridine-3-carboxamide] | ≤ 1 |  | < 50
26 | O=C(N[C@H]1C[C@H](O)c2cc(C(F)F)cc(F)c21)c1ccc(-c2ccnc3[nH]ccc23)nc1 [Compound 155] | ≤ 1 |  | < 50
27 | O=C(N[C@@H]1c2c(F)cccc2OC[C@@H]1O)c1ccc(-c2ccnc3[nH]ccc23)cc1 [Compound 124] | ≤ 1 |  | < 50
28 | CN(C)C(=O)[C@H]1N([C@@H]2Cc3cccc(Cl)c3[C@H]2NC(=O)c2ccc(-c3ccnc4[nH]ccc34)cn2)CC1(C)C [Compound 193] | ≤ 1 |  | < 50
29 | O=C(N[C@@H]1c2c(ccc(F)c2F)C[C@@H]1O)c1ccc(-c2ccnc3[nH]ccc23)nc1 [Compound 132, N-[(1R,2S)-6,7-Difluoro-2-hydroxy-2,3-dihydro-1H-inden-1-yl]-6-{1H-pyrrolo[2,3-b]pyridin-4-yl}pyridine-3-carboxamide] | ≤ 1 |  | < 50
30 | CO[C@@H]1CCN([C@@H]2Cc3ccccc3[C@H]2NC(=O)c2ccc(-c3ccnc4[nH]ccc34)nc2)C1 [Compound 163] | ≤ 1 |  | 0.01 to 100
31 | Cc1c[nH]c2nccc(-c3ccc(C(=O)N[C@H]4CCOc5cc(F)cc(F)c54)cn3)c12 [Compound 138] | ≤ 1 |  | 0.01 to 100
